Data published in publication PMC4464647, “ANO1 (TMEM16A) in pancreatic ductal adenocarcinoma (PDAC)” (Pflugers Archiv, 2014).
d = 2'-deoxy (DNA)

Experiments:
[1] = test system: HPDE, Capan-1, AsPC-1 and BxPC-3 cells; test: Homogeneous caspases assay after gemcitabine treatment; type: cell-based, human; conditions: T16Ainh-A01, 24 h
Experimental: To assess cell proliferation and apoptosis, cells were plated in duplicates on a 96-well plate and incubated in 100 μl of the cell line appropriate media described above. Cells were transfected with siRNA soon after complete attachment (approx. 3 h after seeding). Cells were treated with vehicle, 20 μM gemcitabine, 20 μM T16Ainh-A01, or 10 μM free NS3728 (see below) after culture in a humidified 37 °C and 5 % CO2 incubator overnight. BrdU incorporation was measured using Cell Proliferation ELISA, BrdU (chemiluminescent) (Roche Diagnostics A/S, Denmark) following the manufacturer’s instructions. Caspases 3, 6, and 7 activation was evaluated using Homogeneous Caspases Assay (fluorimetric) (Roche Diagnostics A/S, Denmark). […]

ANO1 = test: Western blot of ANO1 protein expression after siRNA knockdown; type: cell-based, human; conditions: 36 h after transfection, β-actin loading control
Experimental: DharmaFECT 1 Transfection Reagent (Thermo Scientific, Germany) was used for transfection of siRNA targeting ANO1 (50 nM final concentration) or scrambled (5 nM final concentration). Cells were transfected according to the manufacturer’s protocol. Predesigned siRNA oligo was obtained from Sigma-Aldrich (5′-[…][dT][dT]-3′, 5′-[…][dT][dT]-3′) or negative control (Silencer® Negative Control No. 1 siRNA; Ambion, Denmark). ANO1 overexpressing HEK293 cells were generated by adding 0.5 μg/ml mANO1-GFP vector to DMEM containing 1 % v/v penicillin and streptomycin. The mixture was vortexed and incubated for 5 min, and 20 μg/ml polyethylenimine (PEI) was added. The mixture was vortexed again and added drop-wise to 60 % confluent HEK293 cells in DMEM medium containing 5 % v/v FBS and 1 % v/v penicillin and streptomycin after 10 min incubation at room temperature. Media was changed after 4 h incubation at 37 °C and 5 % CO2.
Protein was isolated from cells 36 h after transfection with siRNA targeting ANO1, in a lysis buffer containing (in mM): 10 Tris–HCl, 10 EDTA, 1 % sodium dodecyl sulfate (SDS), 0.5 % sodium deoxycholate, and 1 % complete protease inhibitor mixture (Roche, Denmark), pH 7.4, and was separated by 7 % SDS-PAGE. Protein was subsequently transferred to nitrocellulose membrane (Novex, Denmark). […]
Fig. 3 ANO1 is the major contributor of CaCC currents in PDAC cells and is sensitive to Cl^− channel inhibitors and siRNA. Whole-cell patch-clamp recordings with 1 μM Ca^2+ in pipette solution. a Representative current traces measured in Capan-1 cells upon exposure to different inhibitors. b Quantification of CaCC currents at +67 mV recorded with inhibitors compared to currents in presence of DMSO; currents of siANO1 cells were compared to those of MOCK transfected cells. c Steady-state I–V relationships of cells transfected with either scrambled siRNA (MOCK) or siRNA targeting ANO1. d Densitometric quantification of Western blot analysis of siRNA knockdown. β-Actin was used as a loading control. […]

Compound	protection from apoptosis (Caspase-3 activity) [1]	ANO1 protein expression decreased to (ANO1; AsPC-1 cells) [%]	ANO1 protein expression decreased to (ANO1; BxPC-3 cells) [%]	ANO1 protein expression decreased to (ANO1; Capan-1 cells) [%]
CCc1c(C)nc(SCC(=O)Nc2nc(-c3ccc(OC)cc3)cs2)[nH]c1=O [T16Ainh-A01, 2-[(5-Ethyl-1,6-dihydro-4-methyl-6-oxo-2-pyrimidinyl)thio]-N-[4-(4-methoxyphenyl)-2-thiazolyl]acetamide]	less pronounced			
siRNA targeting ANO1: Predesigned siRNA oligo from Sigma-Aldrich, 5′-CCUUCAACGUCAGUGACUU[dT][dT]-3′, 5′-AAGUCACUGACGUUGAAGG[dT][dT]-3′ (RNA, 3' dTdT, backbone not given here)		54 ± 14	20 ± 7	37 ± 8
